Experimental data as given in patent publication US10801035B2, “Plants having increased tolerance to herbicides” (BASF SE, priority 2011, dated 2020).

Legend:
[1] = molecular target: T1, Arabidopsis HPPD (SEQ ID: 53) (Arabidopsis thaliana, UniProt P93836); test: HPPD activity assay, wildtype Arabidopsis HPPD; type: biochemical; details: for Normalized tolerance index (TI): Arabidopsis HPPD Wildtype, normalized on wildtype (Table 11); for Ki / TI (tolerance index): Arabidopsis HPPD; for Ki: Cheng-Prusoff from IC50, read-out: Ki (dissociation constant); for TI (tolerance index): not normalized
T1 construct: His6 (N); made in house; host or cells: E. coli BL21 (DE3)
T1 sequence (P93836 1-445): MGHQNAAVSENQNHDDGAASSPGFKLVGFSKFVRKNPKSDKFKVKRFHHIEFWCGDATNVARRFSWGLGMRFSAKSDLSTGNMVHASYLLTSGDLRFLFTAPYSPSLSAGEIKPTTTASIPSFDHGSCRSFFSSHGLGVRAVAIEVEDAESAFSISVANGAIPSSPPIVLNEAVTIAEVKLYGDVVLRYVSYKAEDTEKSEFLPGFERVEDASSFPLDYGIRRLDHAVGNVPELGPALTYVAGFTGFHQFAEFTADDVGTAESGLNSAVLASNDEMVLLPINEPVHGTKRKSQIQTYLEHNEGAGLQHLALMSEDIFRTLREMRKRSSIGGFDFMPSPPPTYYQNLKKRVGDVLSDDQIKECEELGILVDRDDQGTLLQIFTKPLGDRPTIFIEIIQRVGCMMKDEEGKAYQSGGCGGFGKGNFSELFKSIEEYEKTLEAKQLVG
Protocol: (§1) HPPD produces homogentisic acid and CO2 from 4-hydroxyphenylpyruvate (4-HPP) and O2. The activity assay for HPPD is based on the analysis of homogentisic acid by reversed phase HPLC.
The assay mixture can contain 150 mM potassium phosphate buffer pH 7.0, 50 mM L-ascorbic acid, 1 μM FeSO4 and 7 μg of purified enzyme in a total volume of 1 ml. Inhibitors are dissolved in DMSO (dimethylsulfoxide) to a concentration of 20 mM or 0.5 mM, respectively. From this stock solution serial five-fold dilutions are prepared in DMSO, which are used in the assay. The respective inhibitor solution accounts for 1% of the assay volume. Thus, final inhibitor concentrations range from 200 μM to 2.5 nM or from 5 μM to 63 pM, respectively. After a preincubation of 30 min the reaction is started by adding 4-HPP to a final concentration of 0.1 mM. The reaction is allowed to proceed for 120 min at room temperature. The reaction is stopped by addition of 100 μl of 4.5 M phosphoric acid.
Activities are normalized by setting the uninhibited enzyme activity to 100%. […] values are calculated using non-linear regression.
The assay mixture can contain 150 mM potassium phosphate buffer pH 7.0, 50 mM L-ascorbic acid, 100 μM Catalase (Sigma-Aldrich), 1 μM FeSO4 and 0.2 units of purified HPPD enzyme in a total volume of 505 μl. 1 unit is defined as the amount of enzyme that is required to produce 1 nmol of HGA per minute at 20° C.
Inhibitors are dissolved in DMSO (dimethylsulfoxide) to a concentration of 0.5 mM. From this stock solution serial five-fold dilutions are prepared in DMSO, which are used in the assay. The respective inhibitor solution accounts for 1% of the assay volume. Thus, final inhibitor concentrations range from 5 μM to 320 pM, respectively. Activities are normalized by setting the uninhibited enzyme activity to 100%. IC50 values are calculated using non-linear regression.
Using methods which are described in the above examples or well known in the art, purified, recombinant wildtype HPPD enzymes are characterized with respect to their kinetic properties and sensitivity towards HPPD inhibiting herbicides. Apparent michaelis constants (Km) and maximal reaction velocities (Vmax) are calculated by non-linear regression with the software GraphPad Prism 5 (GraphPad Software, La Jolla, USA) using a substrate inhibition model. Apparent kcat values are calculated from Vmax assuming 100% purity of the enzyme preparation. Weighted means (by standard error) of Km and […] values are calculated from at least three independent experiments. The Cheng-Prusoff equation for competitive inhibition (Cheng, Y. C.; Prusoff, W. H. Biochem Pharmacol 1973, 22, 3099-3108) is used to calculate dissociation constants (Ki).
Field performance of the HPPD enzyme, which is used as a herbicide tolerance trait may depend not only on its lack of sensitivity towards HPPD inhibiting herbicides but also on its activity. To assess the potential performance of a herbicide tolerance trait a tolerance index (TI) is calculated using the following formula: […]
Easy comparison and ranking of each trait is enabled by normalizing every tolerance index on Hordeum HPPD.

Blepharisma HPPD = test: HPPD activity assay, Blepharisma HPPD; type: biochemical; details: normalized on Hordeum HPPD
Protocol: as §1
(§2) The assay mixture can contain 150 mM potassium phosphate buffer pH 7.0, 50 mM L-ascorbic acid, 1 μM FeSO4 and 7 μg of purified enzyme in a total volume of 1 ml. Inhibitors are dissolved in DMSO (dimethylsulfoxide) to a concentration of 20 mM or 0.5 mM, respectively. From this stock solution serial five-fold dilutions are prepared in DMSO, which are used in the assay. The respective inhibitor solution accounts for 1% of the assay volume. […]
(§3) Activities are normalized by setting the uninhibited enzyme activity to 100%. […] values are calculated using non-linear regression. […]
(§4) Inhibitors are dissolved in DMSO (dimethylsulfoxide) to a concentration of 0.5 mM. […] IC50 values are calculated using non-linear regression.
(§5) Using methods which are described in the above examples or well known in the art, purified, recombinant wildtype HPPD enzymes are characterized with respect to their kinetic properties and sensitivity towards HPPD inhibiting herbicides. Apparent michaelis constants (Km) and maximal reaction velocities (Vmax) are calculated by non-linear regression with the software GraphPad Prism 5 (GraphPad Software, La Jolla, USA) using a substrate inhibition model. […]

Kordia HPPD = test: HPPD activity assay, Kordia HPPD; type: biochemical; details: normalized on Hordeum HPPD
Protocol: as §1, §2, §3, §4, §5

Lolium HPPD = test: HPPD activity assay, Lolium HPPD; type: biochemical; details: normalized on Hordeum HPPD
Protocol: as §1, §2, §3, §4, §5

Rhodococcus HPPD2 = test: HPPD activity assay, Rhodococcus HPPD2; type: biochemical; details: normalized on Hordeum HPPD
Protocol: as §1, §2, §3, §4, §5

[2] = test system: Arabidopsis wildtype control plants; test: Arabidopsis growth inhibition in 48-well plates, wildtype control; type: in vivo, Arabidopsis thaliana; details: plant growth IC50 divided by that of wildtype plants
Protocol: Depending on the species, the plants are kept at 10-25° C. or 20-35° C. The test period extends over 3 weeks. During this time, the plants are tended and their response to the individual treatments is evaluated. Herbicide injury evaluations are taken at 2 and 3 weeks after treatment. Plant injury is rated on a scale of 0 to 9, 0 being no injury and 9 being complete death. Tolerance to coumarone-derivative herbicides can also be assessed in Arabidopsis. In this case transgenic Arabidopsis thaliana plants are assayed for improved tolerance to coumarone-derivative herbicides in 48-well plates. Seeds are surface sterilized by stirring for 5 min in ethanol+water (70+30 by volume), rinsing one time with ethanol+water (70+30 by volume) and two times with a sterile, deionized water. The seeds are resuspended in 0.1% agar dissolved in water (w/v). Four to five seeds per well are plated on solid nutrient medium consisting of half-strength Murashige Skoog nutrient solution, pH 5.8 (Murashige and Skoog (1962) Physiologia Plantarum 15: 473-497). […] Seven to ten days after seeding growth inhibition is evaluated by comparison to wild type plants. Tolerance factor is calculated by dividing the plant growth IC50 value of transgenic plants containing a HPPD and/or HST sequence by that of wildtype plants. […]

SMILES | Normalized tolerance index (TI) [1] | Ki [1] | TI (tolerance index) [1] | Normalized tolerance index (TI) (Blepharisma HPPD) | Normalized tolerance index (TI) (Kordia HPPD) | Normalized tolerance index (TI) (Lolium HPPD) | Normalized tolerance index (TI) (Rhodococcus HPPD2) | Tolerance factor [2]
O=S1(=O)C(c2c(Cl)cc(Cl)nc2Cl)=C(O)c2ncccc2N1CC(F)F [Inhibitor 2, 1-(2,2-difluoroethyl)-2,2-dioxo-3-(2,4,6-trichloro-3-pyridyl)pyrido[3,2-c]thiazin-4-ol] | 1 | 15 nM | 1.5E−2 | 4.9 | 12 | 5.6 | 20.5 | 1
CC1=NOC(c2c(Cl)ccc(C3=C(O)c4ncccc4N(CC(F)F)S3(=O)=O)c2Cl)C1 (stereo not shown) [Inhibitor 1, 3-[2,4-dichloro-3-(3-methyl-4,5-dihydroisoxazol-5-yl)phenyl]-1-(2,2-difluoroethyl)-2,2-dioxo-pyrido[3,2-c]thiazin-4-ol] | 1 | 3.3 nM | 3.3E−3 | 6.3 | 7.5 | 6.5 | 73.9 | 1
